In US20250074891A1 (Anaxis Pharma Pty Ltd., priority 2021, published 2025):

What was measured:
Conditions in all cases: Table 35
[1] = target: RIP1 (Homo sapiens (Human), UniProt Q13546); assay: KINOMEscan binding assay, RIP1
[2] = target: MLKL (full length) (Homo sapiens (Human), UniProt Q8NB16); assay: KINOMEscan binding assay, MLKL (full length)
Method: (§1) Kinase assays. For most assays, kinase-tagged T7 phage strains were grown in parallel in 24-well blocks in an E. coli host derived from the BL21 strain. E. coli were grown to log-phase and infected with T7 phage from a frozen stock (multiplicity of infection=0.4) and incubated with shaking at 32° C. until lysis (90-150 minutes).
(§2) The Hill Slope was set to −1.

[3] = target: RIP3 (Homo sapiens (Human), UniProt Q9Y572); assay: KINOMEscan binding assay, RIP3
Method: as §1, §2

Chain of MLKL (full length) (Q8NB16 whole entry): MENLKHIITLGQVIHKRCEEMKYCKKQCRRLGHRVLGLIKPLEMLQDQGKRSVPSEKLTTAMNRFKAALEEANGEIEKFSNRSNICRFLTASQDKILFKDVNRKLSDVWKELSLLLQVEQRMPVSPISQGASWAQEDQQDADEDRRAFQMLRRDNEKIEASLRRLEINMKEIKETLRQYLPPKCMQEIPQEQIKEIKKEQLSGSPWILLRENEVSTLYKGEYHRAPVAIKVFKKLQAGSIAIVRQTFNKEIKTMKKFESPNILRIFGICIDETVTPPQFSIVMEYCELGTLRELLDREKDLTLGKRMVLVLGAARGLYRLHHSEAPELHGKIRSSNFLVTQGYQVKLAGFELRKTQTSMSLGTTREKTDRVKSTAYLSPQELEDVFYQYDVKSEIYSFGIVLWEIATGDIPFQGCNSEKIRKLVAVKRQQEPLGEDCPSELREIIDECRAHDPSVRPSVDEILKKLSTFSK
Chain of RIP1 (Q13546 whole entry): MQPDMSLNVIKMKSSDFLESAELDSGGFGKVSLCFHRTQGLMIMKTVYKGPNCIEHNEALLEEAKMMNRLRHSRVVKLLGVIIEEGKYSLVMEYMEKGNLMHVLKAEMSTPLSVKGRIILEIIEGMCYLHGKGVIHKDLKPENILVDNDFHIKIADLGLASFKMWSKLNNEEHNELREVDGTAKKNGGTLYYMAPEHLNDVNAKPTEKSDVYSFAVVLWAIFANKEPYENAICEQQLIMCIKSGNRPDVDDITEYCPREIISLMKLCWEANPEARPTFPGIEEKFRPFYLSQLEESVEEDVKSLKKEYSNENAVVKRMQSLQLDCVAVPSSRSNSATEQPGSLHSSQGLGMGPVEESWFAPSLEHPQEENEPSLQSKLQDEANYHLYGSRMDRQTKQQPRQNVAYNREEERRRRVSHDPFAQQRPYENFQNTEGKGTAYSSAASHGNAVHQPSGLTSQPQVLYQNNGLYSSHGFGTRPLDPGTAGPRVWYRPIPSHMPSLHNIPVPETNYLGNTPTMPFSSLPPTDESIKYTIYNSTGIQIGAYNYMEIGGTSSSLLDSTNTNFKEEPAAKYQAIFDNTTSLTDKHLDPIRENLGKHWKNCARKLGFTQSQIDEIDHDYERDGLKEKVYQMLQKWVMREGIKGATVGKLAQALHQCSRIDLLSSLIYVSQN
Chain of RIP3 (Q9Y572 whole entry): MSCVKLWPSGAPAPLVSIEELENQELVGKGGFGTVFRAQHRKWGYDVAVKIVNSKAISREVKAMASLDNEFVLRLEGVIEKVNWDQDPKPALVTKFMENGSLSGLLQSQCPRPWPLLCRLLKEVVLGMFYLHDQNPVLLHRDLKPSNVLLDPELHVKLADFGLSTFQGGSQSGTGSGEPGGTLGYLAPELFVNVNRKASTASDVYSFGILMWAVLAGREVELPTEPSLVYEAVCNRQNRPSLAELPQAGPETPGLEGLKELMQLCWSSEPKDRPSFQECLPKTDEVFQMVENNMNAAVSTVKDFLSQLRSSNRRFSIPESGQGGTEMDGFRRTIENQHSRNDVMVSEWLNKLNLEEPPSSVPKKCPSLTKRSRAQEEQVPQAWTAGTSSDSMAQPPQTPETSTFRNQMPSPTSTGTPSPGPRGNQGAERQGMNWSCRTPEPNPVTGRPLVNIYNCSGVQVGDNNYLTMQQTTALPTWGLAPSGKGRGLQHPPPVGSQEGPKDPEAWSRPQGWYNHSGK

Row | Structure (SMILES) | Kd [1] [µM] | Kd [2] [µM] | Kd [3] [µM]
1 | NC(=O)c1c(-c2ccc(NS(=O)(=O)CC(F)(F)F)cc2)n[nH]c1Nc1ccc(C(F)(F)F)cn1 [Compound 153, 3-(4-((2,2,2-trifluoroethyl)sulfonamido)phenyl)-5-((5-(trifluoromethyl)pyridine-2-yl)amino)-1H-pyrazole-4-carboxamide] | > 30 | < 0.01 | > 30
2 | C[C@H](Oc1cc(-c2n[nH]c(Nc3ccccn3)c2C(N)=O)ccc1NS(=O)(=O)CC(F)(F)F)c1ccc(F)cc1 [Compound 154, (S)-3-(3-(1-(4-fluorophenyl)ethoxy)-4-((2,2,2-trifluoroethyl)sulfonamido)phenyl)-5-(pyridine-2-ylamino)-1H-pyrazole-4-carboxamide] | > 30 | < 0.01 | > 30
3 | Cc1cnc(Nc2[nH]nc(-c3ccc(NS(=O)(=O)CC(F)(F)F)c(OCc4ccc(F)c(Cl)c4)c3)c2C(N)=O)cn1 [Compound 155, 3-(3-((3-chloro-4-fluorobenzyl)oxy)-4-((2,2,2-trifluoroethyl)sulfonamido)phenyl)-5-((5-methylpyrazin-2-yl)amino)-1H-pyrazole-4-carboxamide] | > 30 | < 0.01 | > 30
4 | CCS(=O)(=O)Nc1ccc(-c2n[nH]c(Nc3cnccn3)c2C(N)=O)cc1OCc1ccc(F)cn1 [Compound 156, 3-(4-(ethylsulfonamido)-3-((5-fluoropyridin-2-yl)methoxy)phenyl)-5-(pyrazin-2-ylamino)-1H-pyrazole-4-carboxamide] | > 30 | < 0.01 | > 30
5 | COc1cnc(Nc2[nH]nc(-c3ccc(NS(=O)(=O)CC(F)(F)F)c(OCc4ccc(Cl)cc4)c3)c2C(N)=O)cn1 [Compound 157, 3-(3-((4-chlorobenzyl)oxy)-4-((2,2,2-trifluoroethyl)sulfonamido)phenyl)-5-((5-methoxypyrazin-2-yl)amino)-1H-pyrazole-4-carboxamide] | > 30 | < 0.01 | > 30
6 | CCS(=O)(=O)Nc1ccc(-c2n[nH]c(Nc3cnc(C4CC4)cn3)c2C(N)=O)cc1 [Compound 158, 5-((5-cyclopropylpyrazin-2-yl)amino)-3-(4-(ethylsulfonamido)phenyl)-1H-pyrazole-4-carboxamide] | > 30 | < 0.01 | > 30
7 | COc1ccc(Nc2[nH]nc(-c3ccc(NS(=O)(=O)CC(F)(F)F)c(OCc4ccc(F)cc4)c3)c2C(N)=O)cn1 [Compound 159, 3-(3-((4-fluorobenzyl)oxy)-4-((2,2,2-trifluoroethyl)sulfonamido)phenyl)-5-((6-methoxypyridin-3-yl)amino)-1H-pyrazole-4-carboxamide] | > 30 | < 0.01 | > 30
8 | NC(=O)c1c(-c2ccc(NS(=O)(=O)CC(F)(F)F)c(OCc3ccc(F)c(F)c3)c2)n[nH]c1Nc1ccccn1 [Compound 160, 3-(3-((3,4-difluorobenzyl)oxy)-4-((2,2,2-trifluoroethyl)sulfonamido)phenyl)-5-(pyridine-2-ylamino)-1H-pyrazole-4-carboxamide] | > 30 | < 0.01 | > 30
9 | NC(=O)c1c(-c2ccc(NS(=O)(=O)CC(F)(F)F)c(OC3(c4ccccc4)CC3)c2)n[nH]c1Nc1cnccn1 [Compound 161, 3-(3-(1-phenylcyclopropoxy)-4-((2,2,2-trifluoroethyl)sulfonamido)phenyl)-5-(pyrazin-2-ylamino)-1H-pyrazole-4-carboxamide] | > 30 | < 0.01 | > 30
10 | Cc1cnc(Nc2[nH]nc(-c3ccc(NS(=O)(=O)CC(F)(F)F)c(OCc4ccc(Cl)cc4)c3)c2C(N)=O)cn1 [Compound 162, 3-(3-((4-chlorobenzyl)oxy)-4-((2,2,2-trifluoroethyl)sulfonamido)phenyl)-5-((5-methylpyrazin-2-yl)amino)-1H-pyrazole-4-carboxamide] | > 30 | < 0.01 | > 30
11 | Cc1cnc(Nc2[nH]nc(-c3ccc(NS(=O)(=O)CC(F)(F)F)c(OCc4ccc(F)cc4)c3)c2C(N)=O)cn1 [Compound 163, 3-(3-((4-fluorobenzyl)oxy)-4-((2,2,2-trifluoroethyl)sulfonamido)phenyl)-5-((5-methylpyrazin-2-yl)amino)-1H-pyrazole-4-carboxamide] | > 30 | < 0.01 | > 30
12 | C[C@H](Oc1cc(-c2n[nH]c(Nc3cnccn3)c2C(N)=O)ccc1NS(=O)(=O)CC(F)(F)F)c1ccc(F)cc1 [Compound 164, (S)-3-(3-(1-(4-fluorophenyl)ethoxy)-4-((2,2,2-trifluoroethyl)sulfonamido)phenyl)-5-(pyrazin-2-ylamino)-1H-pyrazole-4-carboxamide] | > 30 | < 0.01 | > 30
13 | NC(=O)c1c(-c2ccc(NS(=O)(=O)CC(F)(F)F)c(OCc3ccc(Cl)c(F)c3)c2)n[nH]c1Nc1cnccn1 [Compound 165, 3-(3-((4-chloro-3-fluorobenzyl)oxy)-4-((2,2,2-trifluoroethyl)sulfonamido)phenyl)-5-(pyrazin-2-ylamino)-1H-pyrazole-4-carboxamide] | > 30 | < 0.01 | > 30
14 | CCS(=O)(=O)Nc1ccc(-c2n[nH]c(Nc3cnccn3)c2C(N)=O)cc1OCc1ccc(Cl)c(F)c1 [Compound 166, 3-(3-((4-chloro-3-fluorobenzyl)oxy)-4-(ethylsulfonamido)phenyl)-5-(pyrazin-2-ylamino)-1H-pyrazole-4-carboxamide] | > 30 | < 0.01 | > 30
15 | NC(=O)c1c(-c2ccc(NS(=O)(=O)CC(F)(F)F)c(Oc3cccc(F)c3)c2)n[nH]c1Nc1cnccn1 [Compound 167, 3-(3-(3-fluorophenoxy)-4-((2,2,2-trifluoroethyl)sulfonamido)phenyl)-5-(pyrazin-2-ylamino)-1H-pyrazole-4-carboxamide] | > 30 | < 0.01 | > 30
16 | NC(=O)c1c(-c2ccc(NS(=O)(=O)CC(F)(F)F)c(Oc3ccc(Cl)cc3)c2)n[nH]c1Nc1cnccn1 [Compound 168, 3-(3-(4-chlorophenoxy)-4-((2,2,2-trifluoroethyl)sulfonamido)phenyl)-5-(pyrazin-2-ylamino)-1H-pyrazole-4-carboxamide] | > 30 | < 0.01 | > 30
17 | NC(=O)c1c(-c2ccc(NS(=O)(=O)C3CC3)c(OCc3ccc(F)cc3)c2)n[nH]c1Nc1cnccn1 [Compound 169, 3-(4-(cyclopropanesulfonamido)-3-((4-fluorobenzyl)oxy)phenyl)-5-(pyrazin-2-ylamino)-1H-pyrazole-4-carboxamide] | > 30 | < 0.01 | > 30
18 | NC(=O)c1c(-c2ccc(NS(=O)(=O)CC(F)(F)F)c(OCc3ccc(F)cc3)c2)n[nH]c1Nc1cnccn1 [Compound 170, 3-(3-((4-fluorobenzyl)oxy)-4-((2,2,2-trifluoroethyl)sulfonamido)phenyl)-5-(pyrazin-2-ylamino)-1H-pyrazole-4-carboxamide] | > 30 | < 0.01 | > 30
19 | CCS(=O)(=O)Nc1ccc(-c2n[nH]c(Nc3cnccn3)c2C(N)=O)cc1OCc1ccc(F)cc1C [Compound 171, 3-(4-(ethylsulfonamido)-3-((4-fluoro-2-methylbenzyl)oxy)phenyl)-5-(pyrazin-2-ylamino)-1H-pyrazole-4-carboxamide] | > 30 | < 0.01 | > 30
20 | NC(=O)c1c(-c2ccc(NS(=O)(=O)CC(F)(F)F)c(OCc3ccc(F)cc3)c2)n[nH]c1Nc1cccc(C(F)F)n1 [Compound 173, 5-((6-(difluoromethyl)pyridine-2-yl)amino)-3-(3-((4-fluorobenzyl)oxy)-4-((2,2,2-trifluoroethyl)sulfonamido)phenyl)-1H-pyrazole-4-carboxamide] | > 30 | < 0.01 | > 30
21 | NC(=O)c1c(-c2ccc(NS(=O)(=O)CC(F)(F)F)c(OCc3ccc(F)c(F)c3)c2)n[nH]c1Nc1cnccn1 [Compound 175, 3-(3-((3,4-difluorobenzyl)oxy)-4-((2,2,2-trifluoroethyl)sulfonamido)phenyl)-5-(pyrazin-2-ylamino)-1H-pyrazole-4-carboxamide] | > 30 | < 0.01 | > 30
22 | NC(=O)c1c(-c2ccc(NS(=O)(=O)CC(F)(F)F)c(OCc3ccc(F)cc3)c2)n[nH]c1Nc1ccc(C(F)(F)F)nc1 [Compound 176, 3-(3-((4-fluorobenzyl)oxy)-4-((2,2,2-trifluoroethyl)sulfonamido)phenyl)-5-((6-(trifluoromethyl)pyridine-3-yl)amino)-1H-pyrazole-4-carboxamide] | > 30 | < 0.01 | > 30
23 | NC(=O)c1c(-c2ccc(NS(=O)(=O)C(F)F)c(Oc3ccc(F)cc3)c2)n[nH]c1Nc1cnccn1 [Compound 177, 3-(4-((difluoromethyl)sulfonamido)-3-(4-fluorophenoxy)phenyl)-5-(pyrazin-2-ylamino)-1H-pyrazole-4-carboxamide] | > 30 | < 0.01 | > 30
24 | NC(=O)c1c(-c2ccc(NS(=O)(=O)CC(F)F)c(OCc3ccc(F)cc3)c2)n[nH]c1Nc1cccc(C(F)(F)F)n1 [Compound 178, 3-(4-((2,2-difluoroethyl)sulfonamido)-3-((4-fluorobenzyl)oxy)phenyl)-5-((6-(trifluoromethyl)pyridine-2-yl)amino)-1H-pyrazole-4-carboxamide] | > 30 | < 0.01 | > 30
25 | CCS(=O)(=O)Nc1ccc(-c2n[nH]c(Nc3cccc(C(F)F)n3)c2C(N)=O)cc1OCc1ccc(F)cc1 [Compound 179, 5-((6-(difluoromethyl)pyridine-2-yl)amino)-3-(4-(ethylsulfonamido)-3-((4-fluorobenzyl)oxy)phenyl)-1H-pyrazole-4-carboxamide] | > 30 | < 0.01 | > 30
